# From a melting point compilation (Tetko et al.)
row,SMILES,melting point
1,COc1ccc(-c2noc(C)c2C(=O)O)cc1,190 to 195 °C
2,O=S(=O)(Cl)c1ccc2c(c1)OCO2,48 to 51 °C
3,N=c1oc2ccccc2cc1C(N)=S,254 °C
4,COC(=O)C1C(O)CCC2CN3CCc4c([nH]c5ccccc45)C3CC21 (configuration not stated),234 °C
5,C1CCC2CCCC2C1 (configuration not stated),-53 °C
6,Nc1c(Cl)cc(Br)cc1Cl,87 °C
7,Clc1ccc(CC(=CCN2CCCC2)c2ccccc2)cc1,48.5 °C
8,C=C[Si](C)(C)O[Si](C)(C)C=C,-99.7 °C
9,O=C(NCC(c1ccccc1)c1ccccc1)c1ccccc1,123 °C
10,CSC(S)=NCc1ccc(CN)cc1,152 to 153 °C
11,Nc1nc(N)c(N=O)c(N)n1,300 °C
12,Cc1nn(C)c(Cl)c1[N+](=O)[O-],75 to 77 °C
13,CC12CCC(C1(C)C)C(C/C=C\c1ccccc1)(C1(C/C=C/c3ccccc3)C(=O)C3(C)CCC1C3(C)C)C2=O (configuration not stated),188 °C
14,O=C(Nc1cccc(Cl)c1)C(C(F)(F)F)C(F)(F)F,154 °C
15,CNC(=O)Sc1ccc(OS(C)(=O)=O)cc1,138 °C
16,O=C1/C(=N/Nc2ccc(F)cc2)C(C(F)(F)F)=NN1c1ccccc1,185 °C
17,O=c1[nH]ncc(Cl)c1Cl,202 °C
18,O=[N+]([O-])c1ccc(S(=O)(=O)N2CCCC2)cc1,151 to 153 °C
19,N#Cc1ccnc(N2CCCCC2)c1,55 to 57 °C
20,O=C1N[C@H](Cc2ccccc2)CO1,87 to 90 °C
21,O=C(O)CS(=O)(=O)CC(=O)O,182 °C
22,Cc1cc(C)c(N)c(C(=O)O)c1,192 °C
23,Nc1cc(C(Cl)=C(Cl)Cl)c(S(N)(=O)=O)cc1S(N)(=O)=O,203 °C
24,C1COCCOCCOCCOCCN1,35 to 37 °C
25,CCOC(=O)c1cn2nc(OP(=S)(OCC)OCC)cc2nc1C,51 °C
26,O=C=NC12CC3CC(CC(C3)C1)C2,144 to 146 °C

row,SMILES,melting point
1,COc1cc(C)c(CCl)cc1CCl,78 °C
2,COc1ccccc1C1Nn2c(COc3ccccc3)nnc2S1 (configuration not stated),126 °C
3,Cc1ccc(S(=O)(=O)NC(=O)NC2C3CCC(C)(C2O)C3(C)C)cc1 (configuration not stated),192 °C
4,ClC(Cl)(Cl)C(Cl)(Cl)Cl,187 °C
5,COc1ccccc1-n1[nH]cc2c(=O)ncnc1-2,271 °C
6,O=CC(C=O)c1nc2ccccc2o1,222 to 230 °C
7,CCCCOP(=O)(O)OCCCC,-13 °C
8,NC12c3ccccc3C(c3ccccc31)c1ccccc12,220 °C
9,COc1ccccc1C(=S)N1CCOCC1,86 °C
10,O=C1c2ccccc2C(=O)C1(O)O,250 °C
11,O=C(c1ccccc1)c1ccc(F)cc1,47 °C
12,Brc1ccc2nccn2c1,76 to 78 °C
13,Cc1cc(Cl)cc(C)c1N,48 °C
14,Cc1ccc(N=Nc2ccccc2)cc1,71.5 °C
15,COC(=O)c1scc(S(=O)(=O)C(C)C)c1S(=O)(=O)Cl,128 to 129 °C
16,O=C(O)CCc1ccccc1F,76 to 78 °C
17,CNc1ccc(N)c2c1C(=O)c1ccccc1C2=O,193 °C
18,CC(=O)OC1(C(C)=O)CCC2C3CC(C(F)(F)F)C4=CC(=O)CCC4(C)C3CCC21C (configuration not stated),206 °C
19,CCCCCCCCCCCCCCCCCC(=O)Oc1ccccc1,52 °C
20,Clc1c(Cl)c(Cl)c2c(c1Cl)OC1Cc3ccccc3C1O2 (configuration not stated),159 °C
21,CC1C2CCCC(C2=NNC(N)=S)C2(O)CCCCC12 (configuration not stated),195 °C
22,CCOC(=O)C(C#N)=Cc1ccc(-c2ccc(C)cc2)o1,123 to 124 °C
23,CCc1c(CC)c(CC)c(CC)c(CC)c1CC,129 °C
24,S=c1cc(-c2ccccc2)oc(-c2ccccc2)c1,170 °C
25,N#Cc1nc[nH]c1C(N)=O,276 to 278 °C
26,O=C1OC(OC(=O)C(F)(F)F)c2ccccc21 (configuration not stated),58 °C
